Molecular target: T1, human TRPM8 (UniProt Q8R4D5)
T1 construct: Receptor Activity TRPM8; Receptor Activity TRPM8; other: test compound at 0.001%; relative to WS5 control (30 microMolar); HEK 293 cells; other: test compound at 0.004%; other: test compound at 5.2E−5%; relative to WS5 control
Test: TRPM8 Protocol-FLIPR Assay (intracellular Ca2+)
Type: cell-based
Details: for TRPM8 Time Course Activity 50 sec: fluorescence at 50 sec; for TRPM8 Time Course Activity 50 sec % of WS5: vs 30 uM WS-5

TRPM8 Time Course Activity 50 sec (dose 6.1 nM): 884.0
TRPM8 Time Course Activity 50 sec (dose 12.2 nM): 3018.0
TRPM8 Time Course Activity 50 sec (dose 24.4 nM): 1936.0
TRPM8 Time Course Activity 50 sec (dose 48.8 nM): 2916.0
TRPM8 Time Course Activity 50 sec (dose 97.6 nM): 3963.0
TRPM8 Time Course Activity 50 sec (dose 195 nM): 5418.0
TRPM8 Time Course Activity 50 sec % of WS5 (dose 390 nM): 75.5%
TRPM8 Time Course Activity 50 sec (dose 390 nM): 7592.0
TRPM8 Time Course Activity 50 sec % of WS5 (dose 781 nM): 97.3%
TRPM8 Time Course Activity 50 sec (dose 781 nM): 9786.0
TRPM8 Time Course Activity 50 sec % of WS5 (dose 1.563 uM): 110.5%
TRPM8 Time Course Activity 50 sec (dose 1.563 uM): 11114.0
TRPM8 Time Course Activity 50 sec % of WS5 (dose 3.125 uM): 115.7%
TRPM8 Time Course Activity 50 sec (dose 3.125 uM): 11637.0
TRPM8 Time Course Activity 50 sec % of WS5 (dose 6.25 uM): 121.6%
TRPM8 Time Course Activity 50 sec (dose 6.25 uM): 12229.0
TRPM8 Time Course Activity 50 sec % of WS5 (dose 12.5 uM): 123.6%
TRPM8 Time Course Activity 50 sec (dose 12.5 uM): 12430.0
TRPM8 Time Course Activity 50 sec % of WS5 (dose 25 uM): 129.7%
TRPM8 Time Course Activity 50 sec (dose 25 uM): 13046.0
TRPM8 Time Course Activity 50 sec % of WS5 (dose 50 uM): 123.5%
TRPM8 Time Course Activity 50 sec (dose 50 uM): 12419.0
TRPM8 Time Course Activity 50 sec % of WS5 (dose 100 uM): 125.7%
TRPM8 Time Course Activity 50 sec (dose 100 uM): 12646.0
Structure (SMILES): CC(C)[C@@H]1CC[C@@H](C)C[C@H]1C(=O)NCC(NC(=O)[C@@H](C)N)c1ccccc1 (single isomer, unassigned) [Compound 28 fraction 1]
